Test results as given in ChEMBL document CHEMBL4507291 (2021).

Experiments:
[1] = tested on: Leucine-rich repeat serine/threonine-protein kinase 2 (Homo sapiens), Q5S007 [G2019S]; settings: Compound concentration 1000.0 nM
[2] = biological target: Cyclin-dependent kinase 2/cyclin A (Homo sapiens) (UniProt P24941+P20248+P78396); assay: CDK2/cyclin A Kinase screen; format: protein-complex assay; settings: Compound concentration 1.0 uM
[3] = tested on: Hepatocyte growth factor receptor (Homo sapiens), P08581 [M1250T]; assay: MET M1250T Kinase screen; settings: Compound concentration 1.0 uM
[4] = biological target: Serine/threonine-protein kinase PAK 1 (Homo sapiens) (UniProt Q13153); assay: PAK1 Kinase screen; settings: Compound concentration 1.0 uM
[5] = biological target: Vasopressin V2 receptor (Homo sapiens) (UniProt P30518); assay: Inhibition of Vasopressin V2 at 10 µM in the Eurofins-Panlabs radioligand binding assay (Eurofins_assay_287610); set-up: ligand concentration 4 nM; settings: Compound concentration 10.0 uM
Vasopressin V2 receptor (Homo sapiens), sequence (P30518 whole entry): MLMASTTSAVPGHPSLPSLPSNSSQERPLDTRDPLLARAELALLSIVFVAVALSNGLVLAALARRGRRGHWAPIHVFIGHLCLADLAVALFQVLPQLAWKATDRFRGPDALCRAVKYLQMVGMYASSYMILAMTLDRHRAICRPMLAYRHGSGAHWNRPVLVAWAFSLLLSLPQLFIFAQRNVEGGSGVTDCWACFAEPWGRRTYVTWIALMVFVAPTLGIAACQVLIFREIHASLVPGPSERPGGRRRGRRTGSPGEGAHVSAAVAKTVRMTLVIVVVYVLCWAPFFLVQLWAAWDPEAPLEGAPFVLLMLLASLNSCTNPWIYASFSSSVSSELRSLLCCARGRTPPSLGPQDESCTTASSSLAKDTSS

[6] = biological target: CDK9/Cyclin K (Homo sapiens) (UniProt P50750+O75909); assay: CDK9/cyclin K Kinase screen; format: protein-complex assay; settings: Compound concentration 1.0 uM
[7] = biological target: MAP kinase-activated protein kinase 2 (Homo sapiens) (UniProt P49137); assay: MAPKAPK2 Kinase screen; settings: Compound concentration 1.0 uM
MAP kinase-activated protein kinase 2 (Homo sapiens), sequence (P49137 whole entry, looked up): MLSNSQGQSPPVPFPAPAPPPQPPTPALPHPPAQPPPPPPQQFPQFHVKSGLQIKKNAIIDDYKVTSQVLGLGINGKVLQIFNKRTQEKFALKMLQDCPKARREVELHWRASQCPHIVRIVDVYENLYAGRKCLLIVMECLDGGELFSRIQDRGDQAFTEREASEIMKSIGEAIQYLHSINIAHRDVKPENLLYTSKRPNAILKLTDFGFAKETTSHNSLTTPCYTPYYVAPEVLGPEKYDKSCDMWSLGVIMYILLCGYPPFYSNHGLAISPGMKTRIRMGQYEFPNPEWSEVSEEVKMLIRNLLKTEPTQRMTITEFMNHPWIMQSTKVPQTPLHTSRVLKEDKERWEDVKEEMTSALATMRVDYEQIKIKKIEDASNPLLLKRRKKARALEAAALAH

[8] = biological target: T1, MAP kinase-activated protein kinase 5 (Homo sapiens) (UniProt Q8IW41); assay: MAPKAPK5 (PRAK) Kinase screen; settings: Compound concentration 1.0 uM
T1 sequence (whole entry): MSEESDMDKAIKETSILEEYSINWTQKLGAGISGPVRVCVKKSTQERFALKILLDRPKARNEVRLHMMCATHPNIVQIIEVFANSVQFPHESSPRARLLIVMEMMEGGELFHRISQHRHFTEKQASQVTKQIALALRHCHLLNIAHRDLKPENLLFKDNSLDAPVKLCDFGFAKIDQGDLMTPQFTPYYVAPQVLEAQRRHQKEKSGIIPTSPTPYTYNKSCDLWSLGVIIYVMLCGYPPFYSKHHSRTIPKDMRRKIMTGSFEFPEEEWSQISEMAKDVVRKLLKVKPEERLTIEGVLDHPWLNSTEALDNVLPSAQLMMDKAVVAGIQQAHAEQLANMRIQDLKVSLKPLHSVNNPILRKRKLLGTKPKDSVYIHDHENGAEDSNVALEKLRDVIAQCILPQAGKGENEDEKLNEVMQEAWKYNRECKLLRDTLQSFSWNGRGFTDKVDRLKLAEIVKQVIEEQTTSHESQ

[9] = biological target: Calcium/calmodulin-dependent protein kinase type II subunit delta (Homo sapiens) (UniProt Q13557); assay: CAMK2D (CaMKII delta) Kinase screen; settings: Compound concentration 1.0 uM
Calcium/calmodulin-dependent protein kinase type II subunit delta (Homo sapiens), sequence (Q13557 whole entry): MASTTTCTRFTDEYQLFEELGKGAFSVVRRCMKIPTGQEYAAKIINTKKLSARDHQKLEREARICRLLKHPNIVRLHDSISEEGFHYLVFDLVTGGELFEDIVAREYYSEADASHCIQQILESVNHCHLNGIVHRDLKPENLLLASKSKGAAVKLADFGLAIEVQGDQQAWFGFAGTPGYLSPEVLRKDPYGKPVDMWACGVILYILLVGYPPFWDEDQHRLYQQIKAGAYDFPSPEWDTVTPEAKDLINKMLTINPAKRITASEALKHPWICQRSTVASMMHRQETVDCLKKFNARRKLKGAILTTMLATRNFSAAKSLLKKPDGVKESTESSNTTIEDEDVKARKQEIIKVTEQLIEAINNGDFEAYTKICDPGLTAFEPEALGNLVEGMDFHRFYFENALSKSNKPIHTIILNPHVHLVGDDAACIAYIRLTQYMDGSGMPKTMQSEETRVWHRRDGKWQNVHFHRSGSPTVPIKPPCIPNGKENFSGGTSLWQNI

[10] = biological target: Calcium/calmodulin-dependent protein kinase type 1D (Homo sapiens) (UniProt Q8IU85); assay: CAMK1D (CaMKI delta) Kinase screen; settings: Compound concentration 1.0 uM
[11] = biological target: T2, Serine/threonine-protein kinase Nek9 (Homo sapiens) (UniProt Q8TD19); assay: NEK9 Kinase screen; settings: Compound concentration 1.0 uM
T2 sequence (whole entry): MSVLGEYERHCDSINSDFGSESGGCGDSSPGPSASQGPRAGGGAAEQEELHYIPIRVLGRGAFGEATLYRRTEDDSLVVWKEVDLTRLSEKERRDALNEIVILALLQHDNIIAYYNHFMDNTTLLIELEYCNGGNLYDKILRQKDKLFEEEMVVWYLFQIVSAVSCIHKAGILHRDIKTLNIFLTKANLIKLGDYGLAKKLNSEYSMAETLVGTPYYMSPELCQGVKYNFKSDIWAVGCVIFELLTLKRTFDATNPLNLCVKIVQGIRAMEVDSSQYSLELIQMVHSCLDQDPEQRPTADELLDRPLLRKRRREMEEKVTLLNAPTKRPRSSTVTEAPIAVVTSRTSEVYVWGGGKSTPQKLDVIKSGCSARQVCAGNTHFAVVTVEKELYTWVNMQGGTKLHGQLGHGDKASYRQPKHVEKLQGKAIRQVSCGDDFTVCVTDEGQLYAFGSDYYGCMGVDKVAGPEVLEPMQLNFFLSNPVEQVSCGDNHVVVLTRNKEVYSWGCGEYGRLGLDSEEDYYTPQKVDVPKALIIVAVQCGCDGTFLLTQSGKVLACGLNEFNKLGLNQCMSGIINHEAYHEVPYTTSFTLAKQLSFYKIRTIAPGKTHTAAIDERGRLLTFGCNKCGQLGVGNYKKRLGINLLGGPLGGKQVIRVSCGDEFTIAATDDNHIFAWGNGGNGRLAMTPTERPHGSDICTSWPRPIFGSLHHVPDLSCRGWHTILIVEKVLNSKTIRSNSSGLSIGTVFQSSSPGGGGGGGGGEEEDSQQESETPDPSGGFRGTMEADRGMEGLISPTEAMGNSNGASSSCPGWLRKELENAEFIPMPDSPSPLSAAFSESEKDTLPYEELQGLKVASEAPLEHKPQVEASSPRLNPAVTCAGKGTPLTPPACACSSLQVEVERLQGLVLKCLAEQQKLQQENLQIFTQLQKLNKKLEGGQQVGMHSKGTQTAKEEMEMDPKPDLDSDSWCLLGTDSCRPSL

[12] = biological target: Dual specificity tyrosine-phosphorylation-regulated kinase 3 (Homo sapiens) (UniProt O43781); assay: DYRK3 Kinase screen; settings: Compound concentration 1.0 uM
Dual specificity tyrosine-phosphorylation-regulated kinase 3 (Homo sapiens), sequence (O43781 whole entry): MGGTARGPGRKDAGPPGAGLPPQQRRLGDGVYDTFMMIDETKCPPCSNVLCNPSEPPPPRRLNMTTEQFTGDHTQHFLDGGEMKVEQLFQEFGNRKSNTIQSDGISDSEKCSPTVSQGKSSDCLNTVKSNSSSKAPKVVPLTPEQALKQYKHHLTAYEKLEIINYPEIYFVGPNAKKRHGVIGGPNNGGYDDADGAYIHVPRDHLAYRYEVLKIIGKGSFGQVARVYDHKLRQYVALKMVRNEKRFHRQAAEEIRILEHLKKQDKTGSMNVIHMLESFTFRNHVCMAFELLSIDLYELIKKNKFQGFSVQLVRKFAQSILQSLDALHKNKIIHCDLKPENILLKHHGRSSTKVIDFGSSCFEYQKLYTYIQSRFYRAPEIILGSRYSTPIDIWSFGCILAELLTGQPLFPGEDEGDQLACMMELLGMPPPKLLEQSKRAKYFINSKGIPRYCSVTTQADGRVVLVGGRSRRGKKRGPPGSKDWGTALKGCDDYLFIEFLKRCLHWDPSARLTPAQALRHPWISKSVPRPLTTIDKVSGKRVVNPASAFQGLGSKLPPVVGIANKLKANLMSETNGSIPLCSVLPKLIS

[13] = biological target: Serine/threonine-protein kinase Nek7 (Homo sapiens) (UniProt Q8TDX7); assay: NEK7 Kinase screen; settings: Compound concentration 1.0 uM
Serine/threonine-protein kinase Nek7 (Homo sapiens), sequence (Q8TDX7 whole entry, looked up): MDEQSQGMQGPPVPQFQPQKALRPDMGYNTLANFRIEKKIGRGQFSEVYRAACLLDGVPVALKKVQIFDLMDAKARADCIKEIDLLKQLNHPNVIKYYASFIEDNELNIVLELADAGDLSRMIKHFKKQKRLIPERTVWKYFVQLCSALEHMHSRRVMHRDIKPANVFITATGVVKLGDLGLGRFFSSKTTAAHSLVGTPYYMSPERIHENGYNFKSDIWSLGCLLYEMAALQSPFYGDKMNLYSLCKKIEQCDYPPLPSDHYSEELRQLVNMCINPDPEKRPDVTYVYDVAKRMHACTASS

[14] = biological target: GABA-A receptor; anion channel (Rattus norvegicus) (UniProt O09028+P15431+P18506+P18508+P19969+P20236+P23574+P23576+P28471+P28473+P30191+P62813+P63079+P63138+Q91ZM7+Q9ES14); settings: Compound concentration 10.0 uM
[15] = biological target: B2 bradykinin receptor (Homo sapiens) (UniProt P30411); settings: Compound concentration 10.0 uM
B2 bradykinin receptor (Homo sapiens), sequence (P30411 whole entry): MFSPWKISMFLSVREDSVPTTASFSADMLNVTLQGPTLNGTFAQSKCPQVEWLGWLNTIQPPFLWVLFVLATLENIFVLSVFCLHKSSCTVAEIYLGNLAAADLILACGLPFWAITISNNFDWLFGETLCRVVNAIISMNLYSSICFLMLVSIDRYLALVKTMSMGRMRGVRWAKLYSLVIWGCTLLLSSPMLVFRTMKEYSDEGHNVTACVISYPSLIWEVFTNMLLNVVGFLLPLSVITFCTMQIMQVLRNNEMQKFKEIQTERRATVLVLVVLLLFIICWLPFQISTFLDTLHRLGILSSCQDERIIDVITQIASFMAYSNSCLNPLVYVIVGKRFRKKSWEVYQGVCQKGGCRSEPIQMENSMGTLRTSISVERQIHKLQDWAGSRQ

[16] = biological target: Peroxisome proliferator-activated receptor gamma (Homo sapiens, UniProt P37231); assay: (§1) PPARgamma Eurofins-Panlabs radioligand binding assay; set-up: ligand concentration 5 nM, non-specific ligand with concentration 0.5 µM L-797773, incubation time 18 h, incubation temperature 15 °C
[17] = biological target: T3, Peroxisome proliferator-activated receptor gamma (Homo sapiens) (UniProt P37231); assay: as §1; set-up: ligand concentration 5 nM, non-specific ligand with concentration 0.5 µM L-797773, incubation time 18 h, incubation temperature 15 °C
T3 sequence (whole entry): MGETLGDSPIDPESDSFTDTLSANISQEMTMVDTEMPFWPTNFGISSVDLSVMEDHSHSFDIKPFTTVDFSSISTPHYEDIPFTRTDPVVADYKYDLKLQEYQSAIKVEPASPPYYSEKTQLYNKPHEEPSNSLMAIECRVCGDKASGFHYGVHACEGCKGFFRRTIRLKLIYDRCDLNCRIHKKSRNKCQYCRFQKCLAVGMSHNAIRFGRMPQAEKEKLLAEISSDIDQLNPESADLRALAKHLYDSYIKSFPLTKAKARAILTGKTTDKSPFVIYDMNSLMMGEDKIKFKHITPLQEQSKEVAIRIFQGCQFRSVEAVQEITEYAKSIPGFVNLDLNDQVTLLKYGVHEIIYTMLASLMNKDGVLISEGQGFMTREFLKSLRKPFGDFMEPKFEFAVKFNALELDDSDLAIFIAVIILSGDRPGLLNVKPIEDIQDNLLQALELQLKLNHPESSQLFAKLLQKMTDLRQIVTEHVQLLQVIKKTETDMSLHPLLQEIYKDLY

Leucine-rich repeat serine/threonine-protein kinase 2 (Homo sapiens), Q5S007 [G2019S], sequence (Q5S007 whole entry G2019S): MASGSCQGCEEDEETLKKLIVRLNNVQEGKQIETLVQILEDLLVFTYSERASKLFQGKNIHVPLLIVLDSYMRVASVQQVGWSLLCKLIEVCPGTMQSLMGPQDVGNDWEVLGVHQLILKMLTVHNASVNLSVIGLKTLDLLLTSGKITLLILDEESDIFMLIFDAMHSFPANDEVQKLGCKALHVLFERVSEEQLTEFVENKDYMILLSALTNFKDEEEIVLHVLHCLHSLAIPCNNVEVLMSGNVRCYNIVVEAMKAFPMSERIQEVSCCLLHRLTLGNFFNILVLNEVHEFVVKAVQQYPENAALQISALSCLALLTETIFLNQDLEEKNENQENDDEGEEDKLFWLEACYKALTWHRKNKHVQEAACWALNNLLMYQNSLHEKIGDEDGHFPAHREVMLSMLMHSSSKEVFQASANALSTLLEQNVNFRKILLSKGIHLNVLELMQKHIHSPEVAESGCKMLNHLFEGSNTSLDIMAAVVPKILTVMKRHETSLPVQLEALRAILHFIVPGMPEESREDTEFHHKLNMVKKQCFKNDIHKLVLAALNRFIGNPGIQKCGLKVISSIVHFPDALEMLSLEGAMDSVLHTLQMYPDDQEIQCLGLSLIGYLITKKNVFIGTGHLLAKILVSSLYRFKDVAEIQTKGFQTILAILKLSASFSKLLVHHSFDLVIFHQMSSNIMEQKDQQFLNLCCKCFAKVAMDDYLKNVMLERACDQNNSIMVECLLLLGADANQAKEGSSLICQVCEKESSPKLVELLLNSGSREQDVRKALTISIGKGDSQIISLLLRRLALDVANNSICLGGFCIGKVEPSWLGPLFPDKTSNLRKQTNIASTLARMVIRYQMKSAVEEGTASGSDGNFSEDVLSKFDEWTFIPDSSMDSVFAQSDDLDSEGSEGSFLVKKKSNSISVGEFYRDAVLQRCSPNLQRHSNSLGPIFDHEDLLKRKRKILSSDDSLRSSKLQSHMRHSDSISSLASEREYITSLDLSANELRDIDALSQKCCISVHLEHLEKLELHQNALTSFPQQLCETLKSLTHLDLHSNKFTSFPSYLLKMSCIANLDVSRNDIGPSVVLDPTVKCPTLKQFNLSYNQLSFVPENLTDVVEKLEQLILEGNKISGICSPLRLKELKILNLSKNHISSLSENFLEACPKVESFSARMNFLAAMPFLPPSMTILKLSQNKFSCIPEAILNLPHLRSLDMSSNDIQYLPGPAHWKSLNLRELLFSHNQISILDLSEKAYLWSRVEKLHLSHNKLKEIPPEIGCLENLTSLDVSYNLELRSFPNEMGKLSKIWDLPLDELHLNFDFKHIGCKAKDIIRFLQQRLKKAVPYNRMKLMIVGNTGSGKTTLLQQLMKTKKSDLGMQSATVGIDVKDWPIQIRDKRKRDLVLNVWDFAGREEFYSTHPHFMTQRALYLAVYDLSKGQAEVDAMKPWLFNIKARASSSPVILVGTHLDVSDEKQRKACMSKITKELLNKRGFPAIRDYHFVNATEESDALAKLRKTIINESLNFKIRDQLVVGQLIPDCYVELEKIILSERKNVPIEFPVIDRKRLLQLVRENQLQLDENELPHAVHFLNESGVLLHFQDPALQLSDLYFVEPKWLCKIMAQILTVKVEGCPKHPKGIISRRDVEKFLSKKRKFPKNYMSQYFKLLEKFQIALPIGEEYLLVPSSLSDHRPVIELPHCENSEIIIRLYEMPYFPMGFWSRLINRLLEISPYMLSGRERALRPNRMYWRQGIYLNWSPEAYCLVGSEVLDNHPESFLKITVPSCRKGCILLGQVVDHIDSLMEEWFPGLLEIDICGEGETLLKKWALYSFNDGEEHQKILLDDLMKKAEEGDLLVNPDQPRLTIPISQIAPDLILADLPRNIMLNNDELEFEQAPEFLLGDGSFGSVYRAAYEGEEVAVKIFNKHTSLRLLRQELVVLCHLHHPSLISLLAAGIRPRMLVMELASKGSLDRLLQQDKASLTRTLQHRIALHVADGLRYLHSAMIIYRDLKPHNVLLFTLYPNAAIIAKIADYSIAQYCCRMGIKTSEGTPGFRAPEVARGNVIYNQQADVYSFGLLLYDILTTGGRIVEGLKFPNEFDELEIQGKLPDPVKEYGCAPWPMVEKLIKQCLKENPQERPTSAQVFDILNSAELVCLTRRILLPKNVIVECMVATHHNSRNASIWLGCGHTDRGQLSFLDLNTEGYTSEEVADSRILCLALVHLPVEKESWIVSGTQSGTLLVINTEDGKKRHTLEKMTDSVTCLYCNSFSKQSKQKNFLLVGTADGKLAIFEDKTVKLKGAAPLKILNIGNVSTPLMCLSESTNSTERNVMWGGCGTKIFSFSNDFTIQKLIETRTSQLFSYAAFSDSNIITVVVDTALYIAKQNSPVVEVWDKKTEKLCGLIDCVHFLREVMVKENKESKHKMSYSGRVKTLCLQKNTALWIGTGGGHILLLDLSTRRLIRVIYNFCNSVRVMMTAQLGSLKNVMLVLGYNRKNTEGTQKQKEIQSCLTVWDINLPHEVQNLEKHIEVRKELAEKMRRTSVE

SMILES | residual activity [1] | inhibition [2] | inhibition [3] | inhibition [4] | inhibition [5] | inhibition [6] | inhibition [7] | inhibition [8] | inhibition [9] | inhibition [10] | inhibition [11] | inhibition [12] | inhibition [13] | inhibition [14] | inhibition [15] | Ki [16] | inhibition ([17]; Compound concentration 0.01 uM) | inhibition ([17]; Compound concentration 0.1 uM) | inhibition ([17]; Compound concentration 1.0 uM) | inhibition ([17]; Compound concentration 10.0 uM)
C[C@@H]1CN(c2cc(-c3nn(C)c4ccc(OC5(C)CC5)cc34)ncn2)C[C@H](C)O1 [MLi-2-NC] | 36% |  |  |  |  |  |  |  |  |  |  |  |  |  |  |  |  |  |  | 
C[C@@H]1CN(c2cc(-c3n[nH]c4ccc(OC5(C)CC5)cc34)ncn2)C[C@H](C)O1 [MLi-2] |  | 1.13% | 2.2% | 6.76% | 9% | -2.24% | 2.35% | 14.2% | 23.9% | 17.4% | -0.999% | 2.54% | 3.68% | 35% | 7% | 1190 nM | 6% | 0% | 10% | 62%
